Test results from US9902696B2, “1,4-substituted piperidine derivatives” (Cephalon, Inc., priority 2015, dated 2018).
Where a name gives a salt, the structure may show the parent alone.

Target: T1, recombinant human baculovirus-expressed GST-tagged FASN (Homo sapiens, UniProt P49327)
T1 construct: GST
Experiment: FASN enzyme activity assay, fluorescence-based detection of CoA with CPM
Type: biochemical
Conditions: 5 nM FASN, 150 μM NADPH, 10 μM acetyl-CoA, 25 μM malonyl-CoA, 90 minutes incubation; read-out: IC50 data for Additional Compounds of Formulae I-V(a): Activity
How it was run: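 Human GST-tagged FASN, baculovirus-expressed (5 nM), in 50 mM HEPES pH 7.5 with 150 μM NADPH, 10 μM acetyl-CoA, 25 μM malonyl-CoA, 0.5% DMSO; malonyl-CoA-started, 90 min. Released CoA detected with CPM (50 μM dilution), 30 min, fluorescence ex 390/em 530. IC50 from variable-slope sigmoidal fit of % inhibition versus log concentration.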

T1 sequence (P49327 whole entry): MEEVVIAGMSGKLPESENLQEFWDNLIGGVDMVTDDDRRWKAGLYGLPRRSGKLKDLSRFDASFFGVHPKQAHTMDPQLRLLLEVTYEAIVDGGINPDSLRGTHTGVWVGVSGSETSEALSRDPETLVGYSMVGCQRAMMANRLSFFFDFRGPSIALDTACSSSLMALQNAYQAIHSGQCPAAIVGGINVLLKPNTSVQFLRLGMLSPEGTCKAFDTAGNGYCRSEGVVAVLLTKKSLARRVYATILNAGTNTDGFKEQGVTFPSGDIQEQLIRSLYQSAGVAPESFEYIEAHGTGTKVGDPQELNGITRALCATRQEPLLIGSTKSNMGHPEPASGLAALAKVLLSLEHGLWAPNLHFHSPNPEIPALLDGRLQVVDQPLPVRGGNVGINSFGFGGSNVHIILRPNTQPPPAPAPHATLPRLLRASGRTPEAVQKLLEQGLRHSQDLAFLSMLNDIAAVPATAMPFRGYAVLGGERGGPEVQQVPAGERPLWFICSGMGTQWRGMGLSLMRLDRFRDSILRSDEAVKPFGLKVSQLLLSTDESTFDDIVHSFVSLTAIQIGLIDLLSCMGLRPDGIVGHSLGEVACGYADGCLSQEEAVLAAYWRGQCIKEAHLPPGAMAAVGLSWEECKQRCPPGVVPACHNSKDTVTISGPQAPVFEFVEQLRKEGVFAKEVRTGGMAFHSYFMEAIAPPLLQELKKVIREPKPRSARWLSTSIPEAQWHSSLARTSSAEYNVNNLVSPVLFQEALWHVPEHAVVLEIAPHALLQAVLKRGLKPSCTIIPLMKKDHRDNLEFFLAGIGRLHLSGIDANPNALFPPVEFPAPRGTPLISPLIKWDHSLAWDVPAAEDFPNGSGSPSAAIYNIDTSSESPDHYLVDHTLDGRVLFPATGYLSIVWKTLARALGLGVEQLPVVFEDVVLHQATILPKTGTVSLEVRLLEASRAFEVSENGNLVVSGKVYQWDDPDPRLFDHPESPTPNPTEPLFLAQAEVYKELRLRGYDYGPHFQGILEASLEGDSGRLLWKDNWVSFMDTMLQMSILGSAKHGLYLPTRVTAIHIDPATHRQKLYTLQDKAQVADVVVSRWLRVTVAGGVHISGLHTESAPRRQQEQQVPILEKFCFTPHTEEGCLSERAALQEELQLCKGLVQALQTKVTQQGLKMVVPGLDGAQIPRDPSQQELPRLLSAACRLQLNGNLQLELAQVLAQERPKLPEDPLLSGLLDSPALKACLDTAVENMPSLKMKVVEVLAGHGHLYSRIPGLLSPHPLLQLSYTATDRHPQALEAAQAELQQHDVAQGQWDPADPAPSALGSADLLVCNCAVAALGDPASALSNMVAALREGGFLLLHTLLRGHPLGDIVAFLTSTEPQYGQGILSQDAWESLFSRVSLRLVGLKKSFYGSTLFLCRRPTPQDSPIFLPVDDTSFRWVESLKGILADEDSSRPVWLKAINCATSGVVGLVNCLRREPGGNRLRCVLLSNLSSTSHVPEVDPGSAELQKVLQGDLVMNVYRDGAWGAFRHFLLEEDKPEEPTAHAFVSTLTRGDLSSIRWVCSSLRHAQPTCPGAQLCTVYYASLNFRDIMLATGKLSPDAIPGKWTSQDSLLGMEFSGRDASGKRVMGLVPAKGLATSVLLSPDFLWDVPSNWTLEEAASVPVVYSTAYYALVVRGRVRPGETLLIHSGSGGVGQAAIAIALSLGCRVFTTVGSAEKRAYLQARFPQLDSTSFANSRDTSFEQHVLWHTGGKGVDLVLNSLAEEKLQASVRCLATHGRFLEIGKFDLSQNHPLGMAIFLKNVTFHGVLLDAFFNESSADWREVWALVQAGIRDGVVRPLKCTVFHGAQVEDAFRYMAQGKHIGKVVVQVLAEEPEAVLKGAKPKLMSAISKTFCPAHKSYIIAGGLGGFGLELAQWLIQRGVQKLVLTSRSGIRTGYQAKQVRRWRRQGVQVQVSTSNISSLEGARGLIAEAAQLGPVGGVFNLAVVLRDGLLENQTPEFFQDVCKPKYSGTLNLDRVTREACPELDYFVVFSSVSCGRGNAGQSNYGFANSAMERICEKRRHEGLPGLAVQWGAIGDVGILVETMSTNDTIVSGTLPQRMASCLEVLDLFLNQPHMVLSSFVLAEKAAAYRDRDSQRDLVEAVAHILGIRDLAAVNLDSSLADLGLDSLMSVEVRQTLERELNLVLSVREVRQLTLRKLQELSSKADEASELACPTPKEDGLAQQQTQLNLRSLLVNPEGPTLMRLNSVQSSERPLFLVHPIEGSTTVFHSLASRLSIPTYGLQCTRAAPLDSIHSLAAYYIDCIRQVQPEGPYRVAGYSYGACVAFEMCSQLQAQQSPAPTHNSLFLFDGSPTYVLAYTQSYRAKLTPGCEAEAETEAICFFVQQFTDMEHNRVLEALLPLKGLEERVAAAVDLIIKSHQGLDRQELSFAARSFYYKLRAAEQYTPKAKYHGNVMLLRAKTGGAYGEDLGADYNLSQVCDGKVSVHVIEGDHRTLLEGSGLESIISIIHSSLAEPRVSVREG

Row | SMILES | IC50
1 | Cc1c(-c2ccc(OC3CCN(C(=O)N4CCN(C(C)C)CC4)CC3)cc2)ccc2cccnc12 [Example 532, (4-Isopropylpiperazin-1-yl)-[4-[4-(8-methyl-7-quinolyl)phenoxy]-1-piperidyl]methanone, HCl] | 1000 to 10000 nM
2 | Cc1c(-c2ccc(OC3CCN(C(=O)[C@H]4CCCN4)CC3)cc2)ccc2cccnc12 [Example 620, [4-[4-(8-Methyl-7-quinolyl)phenoxy]-1-piperidyl]-[(2R)-pyrrolidin-2-yl]methanone] | 1000 to 10000 nM
3 | Cc1c(-c2ccc(OC3CCN(C(=O)NOCC(C)C)CC3)cc2)ccc2nccn12 [Example 601, N-Isobutoxy-4-[4-(5-methylimidazo[1,2-a]pyridin-6-yl)phenoxy]piperidine-1-carboxamide] | 1 to 99 nM

Same assay, conditions: 5 nM FASN, 150 μM NADPH, 10 μM acetyl-CoA, 25 μM malonyl-CoA, 90 minutes incubation; read-out: IC50 data for Compounds of Formulae I-V/V(a): Activity

Row | SMILES | IC50
4 | O=C([C@H]1CCCO1)N1CCC(Oc2ccc(-c3ccc4nccn4c3)cc2)CC1 [Example 318, [4-(4-Imidazo[1,2-a]pyridin-6-yl-phenoxy)-piperidin-1-yl]-(R)-tetrahydro-furan-2-yl-methanone; compound with trifluoroacetic acid] | 1 to 99 nM
5 | Cc1c(-c2ccc(O[C@H]3CCN(C(=O)C4CC4)C[C@H]3F)cc2)ccc2cccnc12 (relative stereo) [Example 368, Cyclopropyl-{cis-3-fluoro-4-[4-(8-methylquinolin-7-yl)-phenoxy]-piperidin-1-yl}-methanone, HCl] | 1000 to 10000 nM
6 | Cc1cnc2cc(-c3ccc(OC4CCN(C(=O)[C@H]5CCCO5)CC4)cc3)ccc2c1 [Example 281, {4-[4-(3-Methylquinolin-7-yl)-phenoxy]-piperidin-1-yl}-(R)-tetrahydro-furan-2-yl-methanone] | 1000 to 10000 nM
7 | CCC(=O)N1CCC(Oc2ccc(-c3cnc4ccccc4c3)c(F)c2)CC1 [Example 200, 1-[4-(3-Fluoro-4-quinolin-3-yl-phenoxy)-piperidin-1-yl]-propan-1-one] | 1 to 99 nM
8 | Cc1c(-c2ccc(OC3CCN(C(=O)[C@@H]4CCCO4)CC3)cc2)ccc2cccnc12 [Example 70, {4-[4-(8-Methylquinolin-7-yl)-phenoxy]-piperidin-1-yl}-(S)-tetrahydro-furan-2-yl-methanone] | 1 to 99 nM
9 | O=C(CO)N1CCC(Oc2ccc(-c3cnc4ccccc4c3)cc2)CC1 [Example 110, 2-Hydroxy-1-[4-(4-quinolin-3-yl-phenoxy)-piperidin-1-yl]-ethanone, 2HCl] | 1000 to 10000 nM
10 | CCC(=O)N1CCC(Oc2ccc(-c3cc4ccccc4o3)cc2)CC1 [Example 245, 1-[4-(4-Benzofuran-2-yl-phenoxy)-piperidin-1-yl]-propan-1-one] | 100 to 999 nM
11 | COc1cc(OC2CCN(C(=O)C3CC3)CC2)ccc1-c1cnc2ccccc2c1 [Example 211, Cyclopropyl-[4-(3-methoxy-4-quinolin-3-yl-phenoxy)-piperidin-1-yl]-methanone] | 1000 to 10000 nM
12 | O=C(N1CCC(Oc2ccc(-c3cnc4ccccc4c3)cc2)CC1)N1CCCO1 [Example 73, Isoxazolidin-2-yl-[4-(4-quinolin-3-yl-phenoxy)-piperidin-1-yl]-methanone] | 1 to 99 nM
13 | O=C([C@H]1CCCO1)N1CCC(Oc2ccc(-c3ccc4cnccc4c3)cc2)CC1 [Example 467, [4-[4-(6-Isoquinolyl)phenoxy]-1-piperidyl]-[(2R)-tetrahydrofuran-2-yl]-methanone HCl] | 1 to 99 nM
14 | O=C(N1CCC(Oc2ccc(-c3ccc4cccnc4c3Cl)cc2)CC1)N1CCCO1 [Example 77, {4-[4-(8-Chloroquinolin-7-yl)-phenoxy]-piperidin-1-yl}-isoxazolidin-2-yl-methanone] | 1 to 99 nM
15 | O=C(C1CC1)N1CCC(Oc2ccc(-c3cnc4[nH]ccc4c3)cc2)CC1 [Example 33, Cyclopropyl-{4-[4-(1H-pyrrolo[2,3-b]pyridin-5-yl)-phenoxy]-piperidin-1-yl}-methanone] | 100 to 999 nM
16 | COc1c(-c2ccc(OC3CCN(C(=O)C4CC4)CC3)c(F)c2)ccc2cccnc12 [Example 220, Cyclopropyl-{4-[2-fluoro-4-(8-methoxyquinolin-7-yl)-phenoxy]-piperidin-1-yl}-methanone] | 1 to 99 nM
17 | CCC(=O)N1CCC(Oc2ccc(-c3ccc4nccn4c3)cc2)CC1 [Example 256, 1-[4-(4-Imidazo[1,2-a]pyridin-6-yl-phenoxy)-piperidin-1-yl]-propan-1-one, TFA salt] | 100 to 999 nM
18 | COc1cc2ncc(-c3ccc(OC4CCN(C(=O)C5CC5)CC4)cc3)cc2cc1Cl [Example 448, {4-[4-(6-Chloro-7-methoxyquinolin-3-yl)-phenoxy]-piperidin-1-yl}-cyclopropylmethanone] | 1000 to 10000 nM
19 | CCC(=O)N1CCC(Oc2ccc(-c3ccc4cccnc4c3OC(C)C)cc2)CC1 [Example 169, 1-{4-[4-(8-Isopropoxyquinolin-7-yl)-phenoxy]-piperidin-1-yl}-propan-1-one, HCl] | 100 to 999 nM
20 | O=C1CCCN1C(=O)N1CCC(Oc2ccc(-c3cnc4ccccc4c3)cc2)CC1 [Example 243, 1-[4-(4-Quinolin-3-yl-phenoxy)-piperidine-1-carbonyl]-pyrrolidin-2-one] | 1000 to 10000 nM
21 | CC(C)C(=O)N1CCC(Sc2ccc(-c3ccc4cnccc4c3)cc2)CC1 [Example 521, 1-(4-((4-(Isoquinolin-6-yl)phenyl)thio)piperidin-1-yl)-2-methylpropan-1-one HCl] | 100 to 999 nM

Row | SMILES | IC50
22 | Cc1cc(-c2ccc(OC3CCN(C(=O)C4CC4)CC3)cc2)c2cccnc2c1 [Example 349, Cyclopropyl-{4-[4-(7-methyl-quinolin-5-yl)-phenoxy]-piperidin-1-yl}-methanone, HCl] | 1 to 99 nM
23 | O=C(C1CC1)N1CCC(Oc2ccc(-c3cnc4ccccc4c3)nc2)CC1 [Example 142, Cyclopropyl-[4-(6-quinolin-3-yl-pyridin-3-yloxy)-piperidin-1-yl]-methanone, 2HCl] | 1000 to 10000 nM
24 | Cc1c(-c2ccc(OC3CCN(C(=O)C4(C#N)CC4)CC3)cc2)ccc2cccnc12 [Example 319, 1-{4-[4-(8-Methylquinolin-7-yl)-phenoxy]-piperidine-1-carbonyl}-cyclopropanecarbonitrile] | 1000 to 10000 nM
25 | CCC(=O)N1CCC(Oc2cc(F)c(-c3cnc4ccccc4c3)cc2F)CC1 [Example 215, 1-[4-(2,5-Difluoro-4-quinolin-3-yl-phenoxy)-piperidin-1-yl]-propan-1-one] | 100 to 999 nM
26 | Cc1cc2nccn2cc1-c1ccc(OC2CCN(C(=O)[C@H]3CCCO3)CC2)cc1 [Example 292, {4-[4-(7-Methylimidazo[1,2-a]pyridin-6-yl)-phenoxy]-piperidin-1-yl}-(R)-tetrahydrofuran-2-yl-methanone] | 100 to 999 nM
27 | Cn1ncc2ccc(-c3ccc(OC4CCN(C(=O)[C@H]5CCCO5)CC4)cc3)cc21 [Example 317, {4-[4-(1-Methyl-1H-indazol-6-yl)-phenoxy]-piperidin-1-yl}-(R)-tetrahydrofuran-2-yl-methanone; compound with trifluoroacetic acid] | 1 to 99 nM
28 | O=C(C1CC1)N1CCC(Oc2cc(F)c(-c3cnc4ccccc4c3)cc2F)CC1 [Example 217, Cyclopropyl-[4-(2,5-difluoro-4-quinolin-3-yl-phenoxy)-piperidin-1-yl]-methanone] | 100 to 999 nM
29 | CCC(=O)N1CCC(Oc2ccc(-c3ccc4cccnc4c3OC)cc2)CC1 [Example 273, 1-{4-[4-(8-Methoxyquinolin-7-yl)-phenoxy]-piperidin-1-yl}-propan-1-one, TFA salt] | 1 to 99 nM
30 | CCC(=O)N1CCC(Oc2ccc(-c3cnc4ccccc4c3)cc2F)CC1 [Example 6, 1-[4-(2-Fluoro-4-quinolin-3-yl-phenoxy)piperidin-1-yl]propan-1-one] | 1 to 99 nM
31 | CCC(=O)N1CCC(Oc2ccc(-c3cnc4ccccc4c3N(C)C)cc2)CC1 [Example 232, 1-{4-[4-(4-Dimethylaminoquinolin-3-yl)-phenoxy]-piperidin-1-yl}-propan-1-one] | 1000 to 10000 nM
32 | O=C(C1CC1)N1CCC(Oc2ccc(-c3ccc4cccnc4c3O)cc2)CC1 [Example 189, Cyclopropyl-{4-[4-(8-hydroxyquinolin-7-yl)-phenoxy]-piperidin-1-yl}-methanone, HCl] | 100 to 999 nM
33 | CN(c1ccc(-c2cnc3ccccc3c2)cc1)C1CCN(C(=O)[C@H]2CCCO2)CC1 [Example 528, {4-[Methyl-(4-quinolin-3-yl-phenyl)-amino]-piperidin-1-yl}-(R)-tetrahydrofuran-2-yl-methanone, HCl] | 100 to 999 nM
34 | CCC(=O)N1CCC(Oc2ccc(-c3cnc4ccccc4c3)c(OC)c2)CC1 [Example 209, 1-[4-(3-Methoxy-4-quinolin-3-yl-phenoxy)-piperidin-1-yl]-propan-1-one] | 1000 to 10000 nM
35 | O=C(C1CCCO1)N1CCC(Oc2ccc(-c3cnc4ccccc4c3)cc2)CC1 (stereo not drawn) [Example 126, [4-(4-Quinolin-3-yl-phenoxy)-piperidin-1-yl]-(tetrahydrofuran-2-yl)-methanone, HCl] | 1 to 99 nM
36 | CC(C)C(=O)N1CCC(Oc2ccc(-c3ccc4occc4c3)cc2)CC1 [Example 9, 1-[4-(4-Benzofuran-5-yl-phenoxy)-piperidin-1-yl]-2-methyl-propan-1-one] | 1000 to 10000 nM
37 | Cc1cnc2cc(-c3ccc(OC4CCN(C(=O)C5CC5)CC4)cc3)ccc2c1 [Example 282, Cyclopropyl-{4-[4-(3-methylquinolin-7-yl)-phenoxy]-piperidin-1-yl}-methanone] | 1000 to 10000 nM
38 | Cc1c(-c2ccc(OC3CCN(C(=O)C4CC(F)(F)CO4)CC3)cc2)ccc2cccnc12 (stereo not drawn) [Example 164] | 100 to 999 nM
39 | Cc1ccc2ncccc2c1-c1ccc(OC2CCN(C(=O)C3CCCO3)CC2)cc1 (stereo in doubt) [Example 354, (R)-(4-(4-(6-Methylquinolin-5-yl)phenoxy)piperidin-1-yl)(tetrahydrofuran-2-yl)methanone] | 1 to 99 nM
